# Reference: patent US20230365592A1 (Agios Pharmaceuticals, Inc., priority 2022, published 2023)
# Molecular target: T1, human PAH with the R408W mutation (Homo sapiens, UniProt P00439, R408W)
# T1 construct: expressed in transfected cells
# T1 sequence (P00439 1-452 R408W): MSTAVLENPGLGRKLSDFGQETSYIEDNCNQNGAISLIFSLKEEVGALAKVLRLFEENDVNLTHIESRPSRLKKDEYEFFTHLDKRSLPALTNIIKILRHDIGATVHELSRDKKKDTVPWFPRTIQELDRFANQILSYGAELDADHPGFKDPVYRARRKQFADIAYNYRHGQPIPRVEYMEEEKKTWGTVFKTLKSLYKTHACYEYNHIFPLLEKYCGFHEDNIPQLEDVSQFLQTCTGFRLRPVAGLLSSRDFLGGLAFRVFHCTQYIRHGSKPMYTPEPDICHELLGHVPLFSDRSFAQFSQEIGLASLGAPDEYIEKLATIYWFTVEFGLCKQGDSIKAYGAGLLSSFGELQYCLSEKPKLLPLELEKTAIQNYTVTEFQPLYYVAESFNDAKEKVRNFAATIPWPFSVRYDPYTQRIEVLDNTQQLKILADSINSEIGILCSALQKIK
# Test: Cell Based Phenylalanine Flux Assay;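 note: after compound treatment, cells received sepiapterin plus isotope-labelled Phenylalanine for 4 hours, then labelled Tyrosine in the medium was quantified, 10-point 2-fold dilution series run in duplicate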
# Conditions: A375 cells expressing human R408W PAH; 24 hrs compound incubation; 13C-Tyrosine by LC-MS; average where tested multiple times; read-out: AC50
row,SMILES,AC50
1,"COc1cccn2nc([C@H]3c4nc[nH]c4CCN3C(=O)c3cc(C)nn3C)cc12 [Example 919, (R)-(1,3-dimethyl-1H-pyrazol-5-yl)(4-(4-methoxypyrazolo[1,5-a]pyridin-2-yl)-6,7-dihydro-1H-imidazo[4,5-c]pyridin-5(4H)-yl)methanone]",> 5 µM
2,"Cc1cccn2nc([C@H]3c4nc[nH]c4CCN3C(=O)c3nnc(C(C)(C)F)o3)cc12 [Example 923, (R)-(5-(2-fluoropropan-2-yl)-1,3,4-oxadiazol-2-yl)(4-(4-methylpyrazolo[1,5-a]pyridin-2-yl)-6,7-dihydro-1H-imidazo[4,5-c]pyridin-5(4H)-yl)methanone]",> 5 µM
3,"Cc1cnn(C)c1-c1nnc(C(=O)N2CCc3[nH]cnc3[C@H]2c2cc3c(C)cccn3n2)o1 [Example 926, (S)-(5-(1,4-dimethyl-1H-pyrazol-5-yl)-1,3,4-oxadiazol-2-yl)(4-(4-methylpyrazolo[1,5-a]pyridin-2-yl)-6,7-dihydro-1H-imidazo[4,5-c]pyridin-5(4H)-yl)methanone]",< 0.5 µM
4,"Cc1cnn(C)c1-c1nnc(C(=O)N2CCc3[nH]cnc3[C@H]2c2cc3c(F)cccn3n2)o1 [Example 928, (S)-(5-(1,4-dimethyl-1H-pyrazol-5-yl)-1,3,4-oxadiazol-2-yl)(4-(4-fluoropyrazolo[1,5-a]pyridin-2-yl)-6,7-dihydro-1H-imidazo[4,5-c]pyridin-5(4H)-yl)methanone]",< 0.5 µM
5,"Cc1cnn(C)c1-c1nnc(C(=O)N2CCc3[nH]cnc3[C@@H]2c2cc3c(F)cccn3n2)o1 [Example 929, (R)-(5-(1,4-dimethyl-1H-pyrazol-5-yl)-1,3,4-oxadiazol-2-yl)(4-(4-fluoropyrazolo[1,5-a]pyridin-2-yl)-6,7-dihydro-1H-imidazo[4,5-c]pyridin-5(4H)-yl)methanone]",> 5 µM
6,"Cc1cccn2nc([C@H]3c4nc[nH]c4CCN3C(=O)c3oc(-c4cn(C)cn4)nc3C(F)F)cc12 [Example 930, (R)-(4-(difluoromethyl)-2-(1-methyl-1H-imidazol-4-yl)oxazol-5-yl)(4-(4-methylpyrazolo[1,5-a]pyridin-2-yl)-6,7-dihydro-1H-imidazo[4,5-c]pyridin-5(4H)-yl)methanone]",> 5 µM
7,"Cc1cccn2nc([C@@H]3c4nc[nH]c4CCN3C(=O)c3oc(-c4cn(C)cn4)nc3C(F)F)cc12 [Example 931, (S)-(4-(difluoromethyl)-2-(1-methyl-1H-imidazol-4-yl)oxazol-5-yl)(4-(4-methylpyrazolo[1,5-a]pyridin-2-yl)-6,7-dihydro-1H-imidazo[4,5-c]pyridin-5(4H)-yl)methanone]",< 0.5 µM
8,"COc1ccc(-c2nnc(C(=O)N3CCc4[nH]cnc4[C@H]3c3cc4c(C(F)(F)F)cccn4n3)o2)nc1 [Example 932, (S)-(5-(5-methoxypyridin-2-yl)-1,3,4-oxadiazol-2-yl)(4-(4-(trifluoromethyl)pyrazolo[1,5-a]pyridin-2-yl)-6,7-dihydro-1H-imidazo[4,5-c]pyridin-5(4H)-yl)methanone]",< 0.5 µM
9,"COc1ccc(-c2nnc(C(=O)N3CCc4[nH]cnc4[C@@H]3c3cc4c(C(F)(F)F)cccn4n3)o2)nc1 [Example 933, (R)-(5-(5-methoxypyridin-2-yl)-1,3,4-oxadiazol-2-yl)(4-(4-(trifluoromethyl)pyrazolo[1,5-a]pyridin-2-yl)-6,7-dihydro-1H-imidazo[4,5-c]pyridin-5(4H)-yl)methanone]",> 5 µM
10,"Cn1cnc(-c2nnc(C(=O)N3CCc4[nH]cnc4[C@@H]3c3cc4c(C(F)(F)F)cccn4n3)o2)c1 [Example 935, (R)-(5-(1-methyl-1H-imidazol-4-yl)-1,3,4-oxadiazol-2-yl)(4-(4-(trifluoromethyl)pyrazolo[1,5-a]pyridin-2-yl)-6,7-dihydro-1H-imidazo[4,5-c]pyridin-5(4H)-yl)methanone]",> 5 µM
11,"Cc1cccc2cc([C@@H]3c4nc[nH]c4CCN3C(=O)c3nnc(C(C)(C)F)o3)nn12 [Example 938, (S)-(5-(2-fluoropropan-2-yl)-1,3,4-oxadiazol-2-yl)(4-(7-methylpyrazolo[1,5-a]pyridin-2-yl)-6,7-dihydro-1H-imidazo[4,5-c]pyridin-5(4H)-yl)methanone]",< 0.5 µM
12,"Cc1cccc2cc([C@@H]3c4nc[nH]c4CCN3C(=O)c3nnc(C4CC4)o3)nn12 [Example 940, (S)-(5-cyclopropyl-1,3,4-oxadiazol-2-yl)(4-(7-methylpyrazolo[1,5-a]pyridin-2-yl)-6,7-dihydro-1H-imidazo[4,5-c]pyridin-5(4H)-yl)methanone]",0.5 to 1 µM
13,"O=C(c1nnc(C2CC2)o1)N1CCc2[nH]cnc2[C@H]1c1cc2c(C(F)(F)F)cccn2n1 [Example 942, (S)-(5-cyclopropyl-1,3,4-oxadiazol-2-yl)(4-(4-(trifluoromethyl)pyrazolo[1,5-a]pyridin-2-yl)-6,7-dihydro-1H-imidazo[4,5-c]pyridin-5(4H)-yl)methanone]",< 0.5 µM
14,"O=C(c1nnc(C2CC2)o1)N1CCc2[nH]cnc2[C@@H]1c1cc2c(C(F)(F)F)cccn2n1 [Example 943, (R)-(5-cyclopropyl-1,3,4-oxadiazol-2-yl)(4-(4-(trifluoromethyl)pyrazolo[1,5-a]pyridin-2-yl)-6,7-dihydro-1H-imidazo[4,5-c]pyridin-5(4H)-yl)methanone]",> 5 µM
15,"Cc1nnc(C(=O)N2CCc3[nH]cnc3[C@@H]2c2cc3c(C(F)(F)F)cccn3n2)o1 [Example 945, (R)-(5-methyl-1,3,4-oxadiazol-2-yl)(4-(4-(trifluoromethyl)pyrazolo[1,5-a]pyridin-2-yl)-6,7-dihydro-1H-imidazo[4,5-c]pyridin-5(4H)-yl)methanone]",> 5 µM
16,"O=C(c1nnc(C2CC2)o1)N1CCc2[nH]cnc2[C@H]1c1cc2c(F)cccn2n1 [Example 946, (S)-(5-cyclopropyl-1,3,4-oxadiazol-2-yl)(4-(4-fluoropyrazolo[1,5-a]pyridin-2-yl)-6,7-dihydro-1H-imidazo[4,5-c]pyridin-5(4H)-yl)methanone]",< 0.5 µM
17,"O=C(c1nnc(C2CC2)o1)N1CCc2[nH]cnc2[C@@H]1c1cc2c(F)cccn2n1 [Example 947, (R)-(5-cyclopropyl-1,3,4-oxadiazol-2-yl)(4-(4-fluoropyrazolo[1,5-a]pyridin-2-yl)-6,7-dihydro-1H-imidazo[4,5-c]pyridin-5(4H)-yl)methanone]",> 5 µM

# Now from value to compound:
row,AC50,SMILES
1,< 0.5 µM,"COc1cccn2nc([C@@H]3c4nc[nH]c4CCN3C(=O)c3cc(C)nn3C)cc12 [Example 918, (S)-(1,3-dimethyl-1H-pyrazol-5-yl)(4-(4-methoxypyrazolo[1,5-a]pyridin-2-yl)-6,7-dihydro-1H-imidazo[4,5-c]pyridin-5(4H)-yl)methanone]"
2,< 0.5 µM,"Cn1cnc(-c2nc(C(F)F)c(C(=O)N3CCc4[nH]cnc4[C@H]3c3cc4c(F)cccn4n3)o2)c1 [Example 921, (S)-(4-(difluoromethyl)-2-(1-methyl-1H-imidazol-4-yl)oxazol-5-yl)(4-(4-fluoropyrazolo[1,5-a]pyridin-2-yl)-6,7-dihydro-1H-imidazo[4,5-c]pyridin-5(4H)-yl)methanone]"
3,< 0.5 µM,"Cc1cccn2nc([C@@H]3c4nc[nH]c4CCN3C(=O)c3nnc(C(C)(C)F)o3)cc12 [Example 922, (S)-(5-(2-fluoropropan-2-yl)-1,3,4-oxadiazol-2-yl)(4-(4-methylpyrazolo[1,5-a]pyridin-2-yl)-6,7-dihydro-1H-imidazo[4,5-c]pyridin-5(4H)-yl)methanone]"
4,< 0.5 µM,"Cc1cccn2nc([C@@H]3c4nc[nH]c4CCN3C(=O)c3nnc(C4CC4)o3)cc12 [Example 924, (S)-(5-cyclopropyl-1,3,4-oxadiazol-2-yl)(4-(4-methylpyrazolo[1,5-a]pyridin-2-yl)-6,7-dihydro-1H-imidazo[4,5-c]pyridin-5(4H)-yl)methanone]"
5,> 5 µM,"Cc1cnn(C)c1-c1nnc(C(=O)N2CCc3[nH]cnc3[C@@H]2c2cc3c(C)cccn3n2)o1 [Example 927, (R)-(5-(1,4-dimethyl-1H-pyrazol-5-yl)-1,3,4-oxadiazol-2-yl)(4-(4-methylpyrazolo[1,5-a]pyridin-2-yl)-6,7-dihydro-1H-imidazo[4,5-c]pyridin-5(4H)-yl)methanone]"
6,< 0.5 µM,"Cc1cccc2cc([C@@H]3c4nc[nH]c4CCN3C(=O)c3nnc(-c4ccn(C(F)F)n4)o3)nn12 [Example 936, (S)-(5-(1-(difluoromethyl)-1H-pyrazol-3-yl)-1,3,4-oxadiazol-2-yl)(4-(7-methylpyrazolo[1,5-a]pyridin-2-yl)-6,7-dihydro-1H-imidazo[4,5-c]pyridin-5(4H)-yl)methanone]"
7,> 5 µM,"Cc1cccc2cc([C@H]3c4nc[nH]c4CCN3C(=O)c3nnc(-c4ccn(C(F)F)n4)o3)nn12 [Example 937, (R)-(5-(1-(difluoromethyl)-1H-pyrazol-3-yl)-1,3,4-oxadiazol-2-yl)(4-(7-methylpyrazolo[1,5-a]pyridin-2-yl)-6,7-dihydro-1H-imidazo[4,5-c]pyridin-5(4H)-yl)methanone]"
8,> 5 µM,"Cc1cccc2cc([C@H]3c4nc[nH]c4CCN3C(=O)c3nnc(C4CC4)o3)nn12 [Example 941, (R)-(5-cyclopropyl-1,3,4-oxadiazol-2-yl)(4-(7-methylpyrazolo[1,5-a]pyridin-2-yl)-6,7-dihydro-1H-imidazo[4,5-c]pyridin-5(4H)-yl)methanone]"
9,0.5 to 1 µM,"Cc1nnc(C(=O)N2CCc3[nH]cnc3[C@H]2c2cc3c(C(F)(F)F)cccn3n2)o1 [Example 944, (S)-(5-methyl-1,3,4-oxadiazol-2-yl)(4-(4-(trifluoromethyl)pyrazolo[1,5-a]pyridin-2-yl)-6,7-dihydro-1H-imidazo[4,5-c]pyridin-5(4H)-yl)methanone]"
